The source of these data is patent publication US6441205B1, “Synthetic precursors to 4-(P-methoxyphenyl)-2-amino-butane” (Council of Scientific and Industrial Research, priority 2000, dated 2002).

The structures appear in SMILES notation. Read-outs that look alike come from different tables or passages of the source.

For series [1] the following is noted: exposure to sun light; cited from earlier work.
Series [2] concerns 4th instar larvae of Spilarctia obliqua. Nature of the series: feeding deterrency (antifeedant) bioassay, diet-mix method. Format: in vivo, Spilarctia obliqua (Bihar hairy caterpillar). The following applies: for % feeding deterrency: diet-mix, fecal pellets after 24 hours; for antifeedant activity (in words): bioassay studies. As to the method: (§1) The compound having formula (1) was evaluated as feeding deterrent and growth inhibitor against 4th in star larvae of spilarctia obliqua (Bihar hairy caterpillar). This insect attacks more than twenty cash crops like urd, moong, arhar, mint and coleus etc. Several synthetic insecticides like quinalphos, Phosphamidon and synthetic pyrethroids are commercially used to manage this insect pest. But, the insect is developing resistance towards some of these insecticides. Therefore, it has now become imperative to search for new ecologically safe, environmentally sound and non-toxic chemicals to manage this pest.
(§2) With compound having formula (1) insect feeding deterrency and growth inhibition was tested by diet-mix method. In this method, 4-(p-methoxyphenyl)-2-aminobutane the compound having formula (1) was dissolved in acetone to make various concentrations ranging from 1000 to 5000 ppm. Test solution was mixed in the artificial diet of the insect so that each gram of diet contained 60-300 μg of the compound (1). 4th in star larva (newly molted) starved four hours, was weighed and released on treated artificial diet in thirty replications. In control, only solvent acetone was mixed and azadirachtin at 1000 ppm concentration was taken as standard for feeding bioassay. After 24 hours, number of fecal pellets produced were counted, and the data were analyzed for % feeding deterrency. Some experiments were continued for next 24 hours and weights of the larva were taken daily. After 3 days, experiment was discontinued and weight gain or loss was analyzed for % growth inhibition.
Diflubenzuron at 5 ppm was taken as a standard in case of growth inhibitory assay. The test result of compound having formula (1) in terms of its feeding deterrency and growth inhibition as compared to standards azadirachtin and diflubenzuron are given in table 1.

The test system is the same in series [3]. As to the kind of experiment: growth inhibition bioassay, diet-mix method. Format: in vivo, Spilarctia obliqua (Bihar hairy caterpillar). The following applies: bioassay studies. Here is the method: as §1
as §2, with “In control, only solvent acetone was mixed and azadirachtin at 1000 ppm concentration was taken as standard for feeding bioassay.” left out, “Some experiments were continued for next 24 hours and weights of the larva were taken daily.” left out, “inhibition. […]” for “inhibition.”

Series [4] can be described thus: sensitivity to light (UV and sunlight). Format: physicochemical. The following applies: both UV and sunlight.

`C/C=C(\C)C(=O)O[C@H]1C[C@@H](OC(C)=O)[C@@]2(C(=O)OC)CO[C@H]3[C@@H](O)[C@@](C)([C@]45O[C@@]4(C)[C@H]4C[C@@H]5O[C@@H]5OC=C[C@@]54O)[C@H]4[C@]1(CO[C@]4(O)C(=O)OC)[C@@H]32` [Azadirachtin, reference compound]: the sensitivity to light result in series [1] is “photosensitive”. Besides, the “% feeding deterrency” value in series [2] (1000 ppm) turned out to be 100.0%.
Take `COc1ccc(CCC(C)N)cc1` (stereo not drawn) [Compound 1, 4-(p-methoxyphenyl)-2-amino butane]: the “growth inhibition activity (in words)” value in series [3] is given as “significant activity”. Also, the sensitivity to light entry in series [4] was “not sensitive to light”. Also, the “% feeding deterrency” value is recorded as 32.0% in series [2] (1000 ppm); 40.0% in series [2] (2000 ppm); 64.0% in series [2] (3000 ppm); 82.0% in series [2] (4000 ppm); 100.0% in series [2] (5000 ppm). Besides, the “antifeedant activity (in words)” value in series [2] is “significant activity”.
For `CC(O)CCc1ccc(O)cc1` (stereo not drawn) [compound (2), 4-(p-hydroxyphenyl)-butan-2-ol], the “growth inhibition activity (in words)” value in series [3] is “not found to be active”. Also, in series [2], the “antifeedant activity (in words)” value is “not found to be active”.
